The experiment concerns the target T1, human 11beta-HSD1 (Homo sapiens, UniProt P28845).
T1 construct: expressed in transfected cells; host or cells: HEK293 cells (ATCC CRL-1573), transient transfection with pcDNA3 construct; microsomal fraction used
The experiment can be described thus: Microsome assay (cortisone to cortisol conversion, ELISA detection). The class given is biochemical. Conditions: microsomes from HEK293 cells transiently expressing human 11beta-HSD1; cortisone 50-200 nM, NADPH 1 mM, 60 min at 37° C.; read-out: h 11-beta-HSD 1 IC50. The protocol: The cDNA encoding the human 11beta-HSD1 protein was cloned into the expression vector pcDNA3 ([…]). This construct (for details see Alex Odermatt et al.; J Biol Chem., 1999, Vol. 274, Issue 40, 28762-28770) was used to transiently express the protein in HEK293 cells (ATCC number: CRL-1573, described in Graham, F. L., Smiley, J., Russell, W. C., Nairn, R.; (1977)) using lipofectamine. 48h after transfection cells were washed twice with ice-cold PBS (Phosphate buffered Saline). To 1 volume of cell suspension in PBS 2 volumes of ice-cold lysis buffer (50 mM Tris; pH 7.5; 1 mM EDTA; 100 mM NaCl) were added. The cells were lysed by Potter-homogenization (20 strokes). The resulting homogenate was sonicated with a tip sonicator (10% output; 2×30 sec.) and cleared by a low speed centrifugation (10 min×9000 g; 4° C.). The microsomal fraction was collected by a high speed centrifugation (60 min×110,000 g). […]
Microsomes isolated from HEK293 cells transiently expressing human 11beta-HSD1 (for details see above) were incubated in assay buffer (100 mM NaCl; 1 mM EDTA; 1 mM EGTA; 1 mM MgCl; 250 mM Sucrose; 20 mM Tris pH 7.4; Cortisone 50-200 nM and NADPH 1 mM) together with different concentrations of test substances. […] The amount of Cortisol produced in this assay was determined using a commercially available, ELISA-based Cortisol-detection kit (Distributed by Assay Design, Inc.). […]

For two compounds, IC50 results are on record in patent US7547697B2, “Alkyl-pyridazine derivatives as 11b-HSD1 inhibitors” (Hoffmann-La Roche Inc., priority 2006, dated 2009).

pIC50: −log10 of the molar value.

T1 sequence (P28845 whole entry): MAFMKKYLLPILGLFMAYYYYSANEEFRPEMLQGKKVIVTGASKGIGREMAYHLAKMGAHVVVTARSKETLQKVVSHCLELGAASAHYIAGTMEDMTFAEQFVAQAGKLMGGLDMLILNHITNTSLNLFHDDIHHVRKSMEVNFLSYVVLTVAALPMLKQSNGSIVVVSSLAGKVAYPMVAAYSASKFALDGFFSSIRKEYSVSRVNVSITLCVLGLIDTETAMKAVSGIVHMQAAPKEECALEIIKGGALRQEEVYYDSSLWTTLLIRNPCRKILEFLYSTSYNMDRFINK

Take `CC(C)(C)Cc1cc2c(nn1)[C@@]1(C)CC[C@@H]2C1(C)C` [Example 3, (1S,8R)-5-(2,2-Dimethyl-propyl)-1,11,11-trimethyl-3,4-diaza-tricyclo[6.2.1.0^2,7]undeca-2,4,6-triene]: the pIC50 was 7.85.
The value for `CC(C)(C)Cc1cc2c(nn1)CCCCCC2` [Example 1, 3-(2,2-Dimethyl-propyl)-5,6,7,8,9,10-hexahydro-cycloocta[c]pyridazine] was 8.22.
